Experimental data: patent US20250064056A1, “CONTACT PHEROMONE-CONTAINING COMPOSITION FOR CONTROLLING THRIPS, KIT COMPOSITION FOR CONTROLLING THRIPS, AND METHOD OF CONTROLLING THRIPS BY USING SAME” (Andong National University Industry-Academic Cooperation …, priority 2023, published 2025)

Columns and labels:
Format in all cases: in vivo
[1] = tested on: Frankliniella occidentalis; assay: Behavioral test (petri dish, treated vs control kidney bean feed), F. occidentalis; conditions: 10 μL on filter paper, 10 minutes, FIG. 1B
Protocol: (§1) FIGS. 1A, 1B, and 1C show the results of behavioral tests in a container for behavior analysis (A) for two types of thrips (F. occidentalis (B) and F. intonsa (C)), in the container for behavior analysis (A), a […] placed on a filter paper disk was treated with 7-methyltricosane (7TM), the control diet was treated with acid solvent, after 10 minutes, the number of thrips that reached each feed was counted, each treatment was repeated four times by exchanging the positions of the treatment and control groups, asterisk indicates a significant difference with type I error=0.05 (LSD test), and “NS” means no significant difference; and
(§2) A filter paper was unfolded in the behavior test site, and two kidney beans were placed away at a distance of 50 mm as bait. Each of the test substances was applied on top of each feed. In the test substance treatment, 10 μL of 7TM substance was sprayed onto 5 mm circular filter paper. In the case of the control group, the same volume of hexane was sprayed onto a filter paper as a test substance. Each circular filter paper differently treated was placed on any one of the two kidney beans. Next, test individuals were placed in the center 40 mm away from both feed sources. Afterward, the individuals having reached each feed were counted for 10 minutes at room temperature. 10 individuals were used in each test, and each test was repeated 4 times. The positions of the control group and the treatment group were exchanged in each repetition. […]
(§3) For the indoor behavioral experiment, one-way ANOVA analysis was performed using PROC GLM (SAS Institute, 1989). […] Comparison between treatment means was determined based on a Type I error probability of 0.05 using an LSD method.
(§4) To analyze the behavioral responses of thrips with affinity for a contact pheromone, a behavior analysis container (shown in FIG. 1(A)) was manufactured using a petri dish. Thrips were prepared to be near the treated feed, and after inducing the behavioral responses for 10 minutes, some of the thrips staying near the pheromone-treated feed were counted.

Frankliniella intonsa [2] = assay: Behavioral test (petri dish, treated vs control kidney bean feed), F. intonsa; conditions: 10 μL on filter paper, 10 minutes, FIG. 1C
Protocol: as §1, §2, §3, §4

Frankliniella intonsa [3] = assay: Outdoor pest control test on open-field peppers, F. intonsa; conditions: for Contol efficacy (%) (control value) / Survival (%) Mean / Survival (%) I / Survival (%) II / Survival (%) III: 3 days after treatment, dose a.i. μg/mL: 7MT 100, Spinetoram 12.5; for Survival (%) Mean: mean of 3 replicates; for Survival (%) I: replicate I; for Survival (%) II: replicate II; for Survival (%) III: replicate III
Protocol: (§5) Each treatment was repeated three times using the egg mass method in open pepper production areas located in Songcheon-dong, Andong-si, Gyeongsangbuk-do. Each test group was pepper individuals, and the distance between these individuals was maintained at least 6 m. The amount of chemical agent sprayed on each pepper individual was 30 mL, and the chemical agent was sufficiently sprayed on the entire peppers. […] […] The control group was treated with a distilled chemical agent. The density of thrips was calculated before treatment and on days 1 and 3 after treatment. The classification of these three different thrips was carried out by using the shape identification method presented by Kim et al. (2021).
(§6) For the indoor behavioral experiment, one-way ANOVA analysis was performed using PROC GLM (SAS Institute, 1989). The effectiveness of outdoor pest control was confirmed by calculating the survival rate and performing […] and two-way ANOVA analysis. Comparison between treatment means was determined based on a Type I error probability of 0.05 using an LSD method.
(§7) A test was conducted to check the outdoor control efficiency by adding a contact pheromone causing behavior disruption to Spinetoram having a relatively high control efficiency against thrips. At the end of May 2023, when the test was conducted, Frankliniella occidentalis and Frankliniella intonsa appeared around peppers in open areas in the Andong region. By taking advantage of this situation, treatment with a chemical agent alone and treatment with a chemical agent/contact pheromone mixture were implemented. In the untreated control group, an increase in the density of two thrips was observed. However, in the mixed treatment with Spinetoram, an overall decrease in the density was clearly observed.
(§8) To analyze the results in detail, a control value on the 3rd day of treatment was calculated. […] The average survival rate was lowered in all treatment cases compared to no treatment cases. […] At this time, when the contact pheromone was added, the control value increased for both thrips.

[4] = tested on: Frankliniella occidentalis; assay: Outdoor pest control test on open-field peppers, F. occidentalis; conditions: for Contol efficacy (%) (control value) / Survival (%) Mean / Survival (%) I / Survival (%) II / Survival (%) III: 3 days after treatment, dose a.i. μg/mL: 7MT 100, Spinetoram 12.5; for Survival (%) Mean: mean of 3 replicates; for Survival (%) I: replicate I; for Survival (%) II: replicate II; for Survival (%) III: replicate III
Protocol: as §5, §6, §7, §8

Total thrips = assay: Outdoor pest control test on open-field peppers, total thrips; conditions: 3 days after treatment, dose a.i. μg/mL: 7MT 100, Spinetoram 12.5; for Survival (%) Mean: mean of 3 replicates; for Survival (%) I: replicate I; for Survival (%) II: replicate II; for Survival (%) III: replicate III
Protocol: as §5, §6, §7, §8

[5] = contact pheromone alone, 3rd day of treatment

## CCCCCCCCCCCCCCCCC(C)CCCCCC (centres unmarked) [7MT, 7-Methyltricosane]
[1]; F. occidentalis adult females
  behavioral response to pheromone-treated feed: high preference
[1]; F. occidentalis adult males
  behavioral response to pheromone-treated feed: avoiding feed sprayed with the contact pheromone
[1]; F. occidentalis second-instar larvae
  behavioral response to pheromone-treated feed: did not show specific selection behavior
Frankliniella intonsa [2]; F. intonsa adult females
  behavioral response to pheromone-treated feed: high preference
Frankliniella intonsa [2]; F. intonsa adult males
  behavioral response to pheromone-treated feed: avoiding feed sprayed with the contact pheromone
Frankliniella intonsa [2]; F. intonsa second-instar larvae
  behavioral response to pheromone-treated feed: did not show specific selection behavior
Frankliniella intonsa [3]
  Contol efficacy (%) (control value): 32.2%
  Survival (%) Mean: 115.7%
  Survival (%) I: 133.3%
  Survival (%) II: 150.0%
  Survival (%) III: 63.6%
Frankliniella intonsa [3]; [5]
  density of thrips vs no treatment (in words): statistically significantly reduced
[4]
  Contol efficacy (%) (control value): 31.2%
  Survival (%) Mean: 358.3%
  Survival (%) I: 500.0%
  Survival (%) II: 300.0%
  Survival (%) III: 275.0%
[4]; [5]
  density of thrips vs no treatment (in words): it was not
Total thrips
  Contol efficacy (%) (control value): 12.4%
  Survival (%) Mean: 222.2%
  Survival (%) I: 300.0%
  Survival (%) II: 233.3%
  Survival (%) III: 133.3%

## Spinetoram [reference compound]
Frankliniella intonsa [3]
  Contol efficacy (%) (control value): 80.3%
  Survival (%) Mean: 33.6%
  Survival (%) I: 40.0%
  Survival (%) II: 22.2%
  Survival (%) III: 38.5%
[4]
  Contol efficacy (%) (control value): 71.9%
  Survival (%) Mean: 146.4%
  Survival (%) I: 150.0%
  Survival (%) II: 175.0%
  Survival (%) III: 114.3%
Total thrips
  Contol efficacy (%) (control value): 76.2%
  Survival (%) Mean: 60.5%
  Survival (%) I: 73.3%
  Survival (%) II: 46.2%
  Survival (%) III: 61.1%
